Reference: patent US12029738B2, “Antiproliferative compounds and methods of use thereof” (Celgene Corporation, priority 2017, dated 2024)
pEC50, pIC50: −log10 of the molar value. One block for each compound: values may come before it.

Experiments:
[1] = tested on: non-selective α1 adrenergic receptor; experiment: α1 adrenergic receptor radioligand binding ([3H]prazosin); conditions: rat cerebral cortex
Method: (§1) α1 Adrenergic and Dopamine D2 Receptors. Methods: Binding and functional assays for α1 adrenergic and dopamine D2 receptors were performed by Eurofins Cerep according to their methods.
α1 Adrenergic Receptor. Binding at 10 μM. The binding assay evaluated the affinity of test article for the non-selective α1 adrenergic receptor in rat cerebral cortex. Membrane homogenates of cerebral cortex were incubated in duplicate for 60 minutes at room temperature with 0.25 nM [^3H]prazosin in the absence or presence of test articles at 10 μM. After the incubation period, samples were filtered through glass fiber filters, the filters dried and then counted for radioactivity using a scintillation counter. Results are expressed as mean percent inhibition of control radioligand binding.
Binding IC50. […] Compound A was tested at 0.01-30 μM. […] Compound 1 and Compound 2, the S-enantiomer of Compound 1, were assayed at 0.03-100 μM. Radioactivity was measured as described above. The IC50 was defined as the concentration causing a half-maximum inhibition of control specific binding.

[2] = target: T1, dopamine D2S receptor (Homo sapiens, UniProt P14416); experiment: Dopamine D2S receptor agonist assay (impedance, HEK-293); type: cell-based; conditions: impedance; versus dopamine control; read-out: D2S Agonism EC50
T1 construct: host or cells: HEK-293 cells (membrane homogenates)
T1 sequence (P14416 1-414 isoform P14416-2): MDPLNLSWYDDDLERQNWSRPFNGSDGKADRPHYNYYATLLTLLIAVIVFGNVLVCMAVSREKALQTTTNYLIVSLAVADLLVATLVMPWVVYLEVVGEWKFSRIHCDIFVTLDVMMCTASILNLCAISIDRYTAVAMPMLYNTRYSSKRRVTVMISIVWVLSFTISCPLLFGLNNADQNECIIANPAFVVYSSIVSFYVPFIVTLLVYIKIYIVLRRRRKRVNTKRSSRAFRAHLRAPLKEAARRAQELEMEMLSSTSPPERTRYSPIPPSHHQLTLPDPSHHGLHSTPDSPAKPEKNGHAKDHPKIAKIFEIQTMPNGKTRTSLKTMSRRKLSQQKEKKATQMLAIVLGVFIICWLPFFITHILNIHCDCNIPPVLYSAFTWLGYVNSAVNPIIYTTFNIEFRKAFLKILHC
Method: as §1
Agonist activity. The agonism of test compounds on the dopamine D2S receptor was assessed using human receptor-transfected HEK-293 cells. Agonist activity was determined by measuring compound effect on impedance modulation. In these experiments, HEK-293 cells were incubated in duplicate at 28° C. with test article. Compound A was tested at 0.01-30 μM. […] Dopamine (3 μM) was used as an agonist control. Impedance measurements were monitored for 10 minutes after ligand addition using cellular dielectric spectroscopy. The EC50 was defined as the concentration causing a half-maximum response, compared to the control agonist (dopamine) response.

[3] = target: T1, dopamine D2S receptor; experiment: Dopamine D2S receptor radioligand binding (HEK-293)
Method: as §1
Dopamine D2 Receptor. Binding at 10 μM. The binding assay evaluated the affinity of test articles for the dopamine D2 receptor in transfected human embryonic kidney (HEK)-293 cells. For determining the binding in the D2S receptor assay, test article was incubated with 0.3 nM [^3H] methylspiperone or 1 nM [^3H] 7-hydroxy-2-N,N-dipropylaminotetralin (7-OH-DPAT). [3H] Methylspiperone at 0.3 nM also was used as control ligand in the D2L binding assay. Cell membrane homogenates were incubated in duplicate at room temperature for 60 minutes with ligand in the absence or presence of test articles at 10 μM. After the incubation period, samples were filtered through glass fiber filters, the filters dried and then counted for radioactivity using a scintillation counter. Results are expressed as mean percent inhibition of control radioligand binding.
Binding IC50. To determine the binding IC50 in the D2 receptor assays, HEK-293 were tested as described above but with varying concentrations of test article. Compound A was tested at 0.01-30 μM in the D2S radioligand binding assay. […] Compound 1 was assayed at 0.03-100 μM in both the D2S and D2L assays, while Compound 2 was tested at 0.03-100 μM in the D2S assay and 0.01-100 μM in the D2L assays. The IC50 was defined as the concentration causing a half-maximum inhibition of control specific binding.

[4] = in vivo; conditions: rat
Method: 7-Day Exploratory Toxicology Studies in Male Rats. Methods. Male CD-IGS rats (n=5/group for toxicologic assessment; n=4/group for toxicokinetic assessment) were dosed once daily by oral gavage (10 mL/kg) with vehicle (0.5% HPMC/0.25% Tween-80 in 50 mM citrate, pH 2.6-2.8) or test articles (Compound A or Compound 1) at 100, 300 or 1000 mg/kg/day for 7 consecutive days. Blood samples for toxicokinetics were collected on Days 1 and 7. […] Body weight was recorded at randomization, prior to dosing on Days 1-7 and prior to necropsy. Samples for hematology and serum chemistry analyses were collected on Day 8, approximately 24 h after the last dose. Rats were euthanized on Day 8 for necropsy. Anatomic pathology evaluation consisted of gross observation, organ weight and histopathologic examination of select tissues.

[5] = target: T2, α1A adrenergic receptor (Homo sapiens, UniProt P35348); experiment: α1A adrenergic receptor antagonist assay (calcium mobilization, CHO cells); type: cell-based; conditions: epinephrine 3 nM; calcium mobilization; read-out: Antagonism IC50 α1A
T2 construct: host or cells: CHO cells
T2 sequence (P35348 1-466): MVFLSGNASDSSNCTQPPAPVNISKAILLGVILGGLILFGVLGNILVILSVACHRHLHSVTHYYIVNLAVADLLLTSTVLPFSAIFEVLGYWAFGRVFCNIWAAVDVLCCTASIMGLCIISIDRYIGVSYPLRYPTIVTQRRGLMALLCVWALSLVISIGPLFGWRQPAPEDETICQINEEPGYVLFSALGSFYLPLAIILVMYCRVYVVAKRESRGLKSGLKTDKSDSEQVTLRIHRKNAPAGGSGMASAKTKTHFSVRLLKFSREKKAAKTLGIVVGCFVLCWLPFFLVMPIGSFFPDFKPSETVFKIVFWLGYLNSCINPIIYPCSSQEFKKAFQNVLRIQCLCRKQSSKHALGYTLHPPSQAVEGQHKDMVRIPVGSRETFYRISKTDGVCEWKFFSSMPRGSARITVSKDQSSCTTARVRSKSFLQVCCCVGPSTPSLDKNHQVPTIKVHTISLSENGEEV
Method: as §1
Antagonist activity. The antagonistic effects of test compounds on the α1A and α1B adrenergic receptors were measured using human receptor-transfected Chinese hamster ovary (CHO) cells. Antagonist activity was determined by measuring compound effect on agonist (epinephrine)-induced calcium mobilization in the α1A receptor assay or cAMP levels in the α1B receptor assay. In these experiments, CHO cells were incubated in duplicate at room temperature with test article and epinephrine at 3 nM in the α1A receptor assays or at 3000 nM in the α1B receptor assay. Compound A was tested in the α1A receptor assay at 0.01-30 μM. […] Compound 1 and Compound 2 were assayed at 0.03 to 30 μM in the α1A receptor assay and 0.03 to 100 μM in the α1B receptor assay. In the α1A receptor assay, cytosolic calcium levels were measured fluorometrically using the fluorescent probe, Fluo4 Direct. Intracellular cAMP levels in the α1B adrenergic receptor assay were measured by homogenous time-resolved fluorescence (HTRF). The antagonism IC50 was defined as the concentration causing a half-maximum inhibition of control agonist response.

[6] = tested on: lenalidomide-resistant NCI-H929 (H929-1051) multiple myeloma/plasmacytoma tumors; experiment: H929-1051 xenograft, Compound 2 alone and with dexamethasone; type: in vivo, mouse; conditions: single agent dexamethasone 0.5 mg/kg oral once daily
[7] = tested on: neutrophil progenitors (BM CD34+ cells from healthy donors); experiment: In vitro maturation of neutrophil progenitors, dexamethasone alone and with Compound 2
Method: Methods. To understand the effects of dexamethasone on neutropenia, in vitro cultures of BM CD34^+ cells from healthy donors were used to evaluate the neutropenic events mediated by dexamethasone as a single agent and in combination with Compound 2. To define the effects of dexamethasone monotherapy in this model, 1, 10, or 100 nM dexamethasone exposure was maintained for 30 h comparing 7 different dosing schedules (FIG. 11). For combination studies, single exposure Compound 2 (1, 10, or 100 nM) and dexamethasone were maintained for 6 and 30 h, respectively, starting at Day 13 of culture.

[8] = tested on: lenalidomide-resistant NCI-H929 (H929-1051) multiple myeloma/plasmacytoma tumors; experiment: H929-1051 xenograft, Compound 2 alone and with bortezomib; type: in vivo, mouse
[9] = tested on: multiple myeloma and plasma cell leukemia cell lines (OPM2.P10, RPMI.8226, L363, JJN-3); experiment: Combination with proteasome inhibitor pulse (flow cytometry, 72 h); type: cell-based, human; conditions: L363; 1 h pulse
Method: Twenty four hours prior to treatment with a proteasome inhibitor and test compound, an appropriate number of cells were split to a concentration of 0.2×10^6/mL in fresh media to allow for exponential growth. On the day of treatment, compounds were freshly solvated in DMSO. Proteasome inhibitors bortezomib or carfilzomib were diluted and added to pre-warmed culture media at the final working concentrations of 150 nM or 300 nM for bortezomib and 300 nM or 550 nM for carfilzomib. Proteasome inhibitor concentrations were determined based upon clinical Cmax concentrations as well as previous studies in each cell line which determined the duration and concentration of PI required to inhibit a specific amount of β5 proteasome activity. Cells were counted and an appropriate number were placed into media containing proteasome inhibitor and thoroughly mixed. After incubation for 1 h at 37° C., 5% CO2, cells were washed two times with 40 mL of complete media to remove the proteasome inhibitor. […] Plated cells were cultured at 37° C., 5% C02, for the remainder of the experiment, up to 72 h. Every 24 h, proteasome inhibition was monitored by the Cell-Based Proteasome-Glo Assay. Proliferation and apoptosis were measured at 72 h by flow cytometry. Cells were stained with APC Annexin-V and 7-AAD to enumerate the number of viable cells remaining in culture.
An in vitro cell assay was established in order to mimic the clinical pharmacokinetics (PK) and pharmacodynamics (PD) of exposure to proteasome inhibitors bortezomib and carfilzomib.

SMILES: O=C1CCC(N2Cc3c(OCc4ccc(CN5CCN(c6ccc(F)cc6F)CC5)cc4)cccc3C2=O)C(=O)N1 (racemic) [Compound A, 3-(4-((4-((4-(2,4-difluorophenyl)piperazin-1-yl)methyl)benzyl)oxy)-1-oxoisoindolin-2-yl)piperidine-2,6-dione]
- Adrenergic α1 (non-selective) % Inhibition (10 μM) ([1]; 10 μM, 0.25 nM [3H]prazosin): 102%
- pIC50 ([1]; [3H]prazosin): 7.19
- pEC50 [2]: 7.80
- pIC50 ([3]; read-out: D2S Binding IC50): 6.82
- inhibition at 10 µM ([3]; read-out: Dopamine D2S % Inhibition (10 μM)): 99%
- AUC(0-t) ([4]; male, CD-IGS, po, 100 mg/kg/day): 441 µM·h
- AUC(0-t) ([4]; male, CD-IGS, po, 300 mg/kg/day): 1230 µM·h
- AUC(0-t) ([4]; male, CD-IGS, po, 1000 mg/kg/day): 1760 µM·h
- dose at which abnormal stomach content (dry, feed material) was observed grossly ([4]; male, CD-IGS, po, 7 days): ≥ 100 mg/kg
- dose at which clinical signs of toxicity (hunched posture, piloerection, decreased activity) and decreased body weight were observed ([4]; male, CD-IGS, po, 7 days): ≥ 300 mg/kg
- test article-related microscopic findings [4]: minimal multifocal myocardial necrosis and mixed cell infiltration in hearts of rats at all dose levels
- pIC50 [5]: 7.85

- maturation of neutrophil progenitors / late-stage neutrophil precursors ([7]; single agent, 1, 10, 100 nM, dexamethasone 30 h, Compound 2 6 h): not affected
SMILES: C[C@@H]1C[C@H]2[C@@H]3CCC4=CC(=O)C=C[C@]4(C)[C@@]3(F)[C@@H](O)C[C@]2(C)[C@@]1(O)C(=O)CO [Dexamethasone, dexamethasone]
- tumor growth inhibition / tumor volume reduction (TVR) [6]: 20%
- viability of immature and mature neutrophils ([7]; alone or in combination): not affected

SMILES: CC(C)C[C@H](NC(=O)[C@H](Cc1ccccc1)NC(=O)c1cnccn1)B(O)O [bortezomib]
- tumor growth inhibition / tumor volume reduction (TVR) ([8]; single agent bortezomib 1 mg/kg iv single dose day 31, day 50): 60%
- day by which tumors reached approximately 2000 mm^3 ([8]; single agent, 1 mg/kg): 66 days
- single agent activity on cell viability [9]: no single agent activity on cell viability
